Values joined by “and” are separate entries in the source; they are usually repeats but may differ in a detail not shown here. Equal values may be shown once.
Legend:
C57BL6/J mice = test: Intraperitoneal glucose tolerance test in high-fat fed mice; type: in vivo, mouse; details: for insulin sensitivity in the GTT compared to control (vehicle-diet) mice: 30 mg/kg body weight/day, weeks 4 and 11; for Mean Plasma Glucose Level 0 Min: 30 mg/kg/day in high fat diet, 6 h fast, before glucose injection; for Mean Plasma Glucose Level 15 min / Mean Plasma Glucose Level 30 min / Mean Plasma Glucose Level 60 min / Mean Plasma Glucose Level 120 min / peak glucose level (group average) / time at which peak glucose level was reached / peak glucose level / time at which peak glucose level occurred: 30 mg/kg/day; for Mean Plasma Glucose Level 15 min / Mean Plasma Glucose Level 30 min / Mean Plasma Glucose Level 60 min / Mean Plasma Glucose Level 120 min: after 2 g/kg glucose i.p.; for peak glucose level (group average) / time at which peak glucose level was reached: Week 4 glucose tolerance test; for peak glucose level / time at which peak glucose level occurred: Week 11 glucose tolerance test
Method: The total number of C57BL6/J mice was 48, with 12 mice belonging to each of 4 treatment groups. Duration of the feeding was 14 weeks. Mouse feed contained high fat content (60% of kCal), and was supplemented with XN, DXN, or TXN in the treatment groups. XN, DXN and TXN content within the mouse diet were designed to deliver a dose of 30 mg/kg/day body weight. Food intake was measured three times per week by weighing the food pellet before placement in the cage, and at the time of feed changing by weighing uneaten food. Mice were unrestricted in dietary intake, being allowed to eat as much food as desired. Mice were weighed once per week. Groups included low dose (30 mg/kg) XN, DXN, TXN and no supplement control. Mice were maintained in accordance with the Oregon State University Institutional Animal Care and Use Committee (IACUC) regulations. One mouse was maintained on a standard AIN-93M chow diet to be used as a healthy reference during glucose tolerance assays.
Glucose tolerance tests were conducted during week 4 and week 11 of the feeding trial. Five mice from each treatment group were used in each glucose tolerance assay. Mice were fasted for 6 hours prior to baseline blood glucose testing. Blood was collected from the mice by tail puncture, and glucose measurements were taken using a One Touch UltraMini (LifeScan, Inc.) glucometer. Mice were weighed and then given an intraperitoneal (IP) injection of glucose equal to 2 g/kg body weight.

[1] = Mouse feeding experiment, weight gain; type: in vivo; details: 30 mg/kg/day in high fat diet, 12 weeks
Method: Over the course of 12 weeks, mouse weights were recorded once per week and the average weights were calculated for each group.

[2] = system: C2C12 skeletal muscle cells; test: Seahorse OCR and ECAR measurements after oligomycin; type: cell-based, mouse; details: for increase in oxygen consumption: as summarised in Example 2
Method: OCR and ECAR measurements were performed with a Seahorse XF 24 Analyzer (Seahorse Bioscience). Cells were plated 24 hours prior to measurements at a density of 40,000 cells per well within growth medium in a 24-well plate. The cells were then allowed to adhere for 24 hours (37° C., 5% CO2). Prior to the assay, the cells were washed with freshly prepared running media consisting of Seahorse XF Assay medium (Seahorse Bioscience, North America, USA), 10 mM glucose and 1 mM sodium pyruvate. The pH of the medium was adjusted to 7.4 with 1 M NaOH. The cells were then equilibrated for one hour at 37° C. without CO2. The compounds were injected during the assay; OCR and ECAR were measured at 9 minutes measurement intervals. The solutions of oligomycin, FCCP, XN, DXN and TXN were freshly prepared in running medium. The final concentrations in the wells were: 1 μM for oligomycin, 5 μM for XN, DXN and TXN and 2, 5, 8, 25 μM for the dose response experiments with DXN. Ethanol was added to the control wells not to exceed a final concentration of 0.1%. All the compounds were tested in quadruplicate on the 24-well plate. XN is highly non-polar and FBS can be used to dissolve XN. Thus, XN, DXN and TXN were first dissolved in ethanol and the resulting solutions were diluted 100-fold in running medium containing 1% of FBS. After a further 10-fold dilution into the media in wells, only 0.1% of FBS was present during OCR measurements. […] The concentration of oligomycin and the cell density used were selected based on preliminary experiments.
Seahorse data were analyzed in SAS 9.2 (SAS Institute Inc., Cary, N.C.). To show a consistent baseline, OCR values (in pmol/min/mg protein) and ECAR values (in mpH/min/mg protein) for each value were divided prior to statistical analysis by the average of the four pre oligomycin treatment values (0, 8, 17, and 25 minutes) for the corresponding well and are shown as % pre oligomycin values. The original scale for OCR and for ECAR values was utilized for the OCR/ECAR ratio (in pMol/mpH). To account for repeated measures within wells over time, a repeated-measures-in-time design using ANOVA procedures in PROC MIXED was used. Fixed effects in the model were treatment (control, 2 μM DXN, 5 μM XN, 5 μM DXN, and 5 μM TXN for the compound study and control, 2, 5, 8, and 25 μM DXN for the DXN dosage study), time (0, 8, 17, 25, 34, 43, 52, 60, 69, 78, 86, and 95 minutes), and their interaction. The random effect was the experiment (5 experiments for the compound study and 3 experiments for the DXN dosage study). To account for repeated measures within wells over time, a first order homogeneous variance-covariance matrix [AR(1)] was fitted for each well. Using the ESTIMATE statement, a priori contrasts were constructed by comparing the changes in compound treated cells from the last two time points prior to compound treatment (average 52 and 60 minutes) to the changes in control cells during the same time period. This was done for each compound and dosage for 69, 78, 86, and 95 minutes separately and for all four time points combined. […] A P-value of 0.05 was considered statistically significant and is shown as star in the graphs (FIG. 5).

[3] = 5 μM, after oligomycin 1 μM, compound study, five independent experiments
[4] = 5 μM, oligomycin 1 μM, compound study, average of five independent experiments

| Compound | insulin sensitivity in the GTT compared to control (vehicle-diet) mice (C57BL6/J mice) | Mean Plasma Glucose Level 0 Min (C57BL6/J mice; Week 4) | Mean Plasma Glucose Level 15 min (C57BL6/J mice; Week 4) | Mean Plasma Glucose Level 30 min (C57BL6/J mice; Week 4) | Mean Plasma Glucose Level 60 min (C57BL6/J mice; Week 4) | Mean Plasma Glucose Level 120 min (C57BL6/J mice; Week 4) | peak glucose level (group average) (C57BL6/J mice) | time at which peak glucose level was reached (C57BL6/J mice) [min] | Mean Plasma Glucose Level 0 Min (C57BL6/J mice; Week 11) | Mean Plasma Glucose Level 15 min (C57BL6/J mice; Week 11) | Mean Plasma Glucose Level 30 min (C57BL6/J mice; Week 11) | Mean Plasma Glucose Level 60 min (C57BL6/J mice; Week 11) | Mean Plasma Glucose Level 120 min (C57BL6/J mice; Week 11) | peak glucose level (C57BL6/J mice) [mg/dL] | time at which peak glucose level occurred (C57BL6/J mice) [min] | weight gain compared to the control [1] | decrease in ECAR [2, 3] [%] | increase in oxygen consumption ([2]; 5 μM) | increase in OCR in the presence of oligomycin [2, 4] [%] | effect on OCR at higher concentrations [2] | other results |
| --- | --- | --- | --- | --- | --- | --- | --- | --- | --- | --- | --- | --- | --- | --- | --- | --- | --- | --- | --- | --- | --- |
| COc1cc(O)c(CC=C(C)C)c(O)c1C(=O)/C=C/c1ccc(O)cc1 [XN, xanthohumol] | improved insulin sensitivity | 283.4 (±4.6) mg/dL | 508.8 (±28.3) mg/dL | 456.0 (±41.5) mg/dL | 389.6 (±29.8) mg/dL | 167.0 (±3.8) mg/dL | 508.8 mg/dL | 15 | 193.2 (±21.9) mg/dL | 465.0 (±30.0) mg/dL | 452.0 (±41.6) mg/dL | 463.8 (±52.2) mg/dL | 373.4 mg/dL and 373.4 (±58.1) mg/dL | 465.0 | 15 | followed DXN, then XN | 4.7±2.0 | approximately 10% | 11.3±6.9 | tended to inhibit OCR | – |
| COc1cc(O)c(CC=C(C)C)c(O)c1C(=O)CCc1ccc(O)cc1 [DXN, α,β-dihydroxanthohumol] | improved insulin sensitivity | 297.6 (±6.6) mg/dL | 396.4 (±55.9) mg/dL | 423.0 (±76.3) mg/dL | 342.8 (±70.4) mg/dL | 176.2 (±40.0) mg/dL | 423.0 mg/dL and 407.2 mg/dL | 30 | 249.8 (±22.1) mg/dL | 474.4 (±46.0) mg/dL | 508.0 (±41.2) mg/dL | 494.8 (±38.9) mg/dL | 298.8 mg/dL and 298.8 (±45.5) mg/dL | 508.0 | 30 | followed DXN, then XN | 17.8±2.0 | 20% | 28.7±6.9 | – | decrease in ECAR ([2]; 2 μM, DXN dosage study): 8.0±2.4%; increase in OCR in the presence of oligomycin ([2]; 2 μM, DXN dosage study, three independent experiments): 6±6%; decrease in ECAR ([2]; 2 μM, after oligomycin 1 μM, compound study, five independent experiments): 5.9±2.0%; increase in OCR in the presence of oligomycin ([2]; 2 μM, oligomycin 1 μM, compound study, average of five independent experiments): 8.9±7.0%; decrease in ECAR ([2]; 5 μM, DXN dosage study): 25.2±2.3%; increase in OCR in the presence of oligomycin ([2]; 5 μM, DXN dosage study, three independent experiments): 30.8±6.0%; decrease in ECAR ([2]; 8 μM, DXN dosage study): 31.6±2.3%; increase in OCR in the presence of oligomycin ([2]; 8 μM, DXN dosage study, three independent experiments): 55.1±6.0%; OCR response in the presence of oligomycin ([2]; 25 μM, DXN dosage study): initial increase in the OCR that was immediately followed by a sharp decrease; decrease in ECAR ([2]; 25 μM, DXN dosage study): 49.8±2.3% |
| COc1cc(O)c(CCC(C)C)c(O)c1C(=O)CCc1ccc(O)cc1 [TXN, tetrahydroxanthohumol] | improved insulin sensitivity | 193.6 (±17.9) mg/dL | 407.2 (±38.1) mg/dL | 394.6 (±50.1) mg/dL | 235.8 (±21.9) mg/dL | 149.0 (±15.3) mg/dL | 407.2 mg/dL and 423.0 mg/dL | 15 | 245.0 (±17.8) mg/dL | 408.0 (±29.8) mg/dL | 513.6 (±37.6) mg/dL | 450.8 (±5.0) mg/dL | 266.8 mg/dL and 266.8 (±32.1) mg/dL | 513.6 | 30 | most dramatic reduction in weight gain compared to the control | 27.5±2.0 | 50% | 56.8±6.9 | tended to inhibit OCR | – |

From US20160008298A1, “XANTHOHUMOL-BASED COMPOUNDS AND COMPOSITIONS THEREOF, AND METHODS OF MAKING AND USING THE SAME” (Oregon State University, priority 2014, published 2016)
